The source of these data is patent publication US20080292576A1, “METHOD FOR IDENTIFYING HAIR CONDITIONER-RESISTANT HAIR-BINDING PEPTIDES AND HAIR BENEFIT AGENTS THEREFROM” (E.I. du Pont de Nemours and Co., priority 2005, published 2008).

The nature of data set [1]: ELISA determination of specificity, binding to pig skin. The following applies: for Skin A450 ± SEM: ELISA, 20 μM fluorescein-labeled peptide in binding buffer, 30 min at 37° C., pig skin, absorbance at 450 nm; for binding to skin (in words): ELISA of Table 2, pig skin. From the text:
(§1) The hair-binding peptides HCP.1 (SEQ ID NO:1) and HCP.6 (SEQ ID NO:4) were used in this Example along with a control peptide, an unrelated skin-binding peptide, Skin 1 (Huang et al., U.S. Patent Application Publication No. 2005/0050656), given as SEQ ID NO:8. All of the peptides were synthesized with an added lysine residue, derivatized with the fluorescent tag 5-carboxyfluorescein-aminohexyl amidite (5-FAM), at the C-terminus by SynPep (Dublin, Calif.). The sequences of the derivatized hair binding peptides HCP.1(5-FAM) and HCP.6(5-FAM) are given as SEQ ID NOs:9 and 10, respectively. The sequence of the derivatized skin-binding peptide control Skin 1(5-FAM) is given as SEQ ID NO:11.
(§2) For the assay, a unique hair or pig skin-bottom 96-well apparatus was created by applying one layer of Parafilm® under the top 96-well block of a Minifold I Dot-Blot System (Schleicher & Schuell, Inc., Keene, N.H.), adding hair or a layer of hairless pig skin on top of the Parafilm® cover, and then tightening the apparatus. The hair or skin sample in the 96-well apparatus was first blocked with SuperBlock® Blocking Buffer (Tris-buffered; Pierce Biotechnology, Rockford, Ill.) by incubating the sample for 1 h at room temperature. Then, the hair or skin sample was washed six times with wash buffer (TBST-0.5%). The fluorescein-labeled peptide, at a concentration of 20 μM in 1.0 mL of binding buffer (TBST-0.5% containing 1 mg/mL BSA), was added to each well and incubated for 30 min at 37° C. The hair or skin sample was washed six times with TBST-0.5%, and then, 1.0 mL of anti-fluorescein/Mouse IgG (Molecular Probes, Inc., Eugene, Oreg.) solution (1:1000 dilution in blocking buffer) was added per well. The samples were incubated for 1 h at room temperature and then washed six times with wash buffer. Then, 1.0 mL of Anti-Mouse IgG-HRP conjugate (Pierce Biotechnology) solution (1:1000 dilution in blocking buffer) was added to each well and the samples were incubated for 1 h at room temperature. The samples were washed six times with wash buffer, and 300 μL of TMB Substrate (Pierce Biotechnology) was added to each well. The samples were incubated for 10 min at room temperature and then a 100 μL sample from each well was taken and added to a well in a new microtiter plate. Then, 100 μL of Stop solution (2 M sulfuric acid solution) was added to each well and the absorbance of each sample was measured at a wavelength of 450 nm.
Background: In an ELISA, binding on a coated surface is turned into a signal by an enzyme label.

A short description of data set [2]: ELISA determination of specificity, binding to hair. More on the design: species or system human. The following applies: for Hair A450 ± SEM: ELISA, 20 μM fluorescein-labeled peptide in binding buffer, 30 min at 37° C., absorbance at 450 nm; for binding to hair (in words): ELISA of Table 2.
Text: as §1, §2

Data set [3] can be described thus: ELISA binding to hair bundles from a hair conditioner matrix or buffer. More on the design: species or system human. The following applies: for Buffer A450 ± SEM / 100% Conditioner A450 ± SEM: hair bundles, 30 min at 37° C.; for Buffer A450 ± SEM: 20 μM peptide in buffer; for 100% Conditioner A450 ± SEM: 20 μM peptide in undiluted Dove Extra Volume Conditioner; for difference in hair-binding activity from a hair conditioner matrix compared to buffer: ELISA of Table 3. The method, then: The same ELISA method described in Example 4 was used, except that the hair samples were assembled into bundles, instead of being cast as wells in a 96-well apparatus. To prepare the hair sample bundles, 100 pieces of 1 cm-long hairs were assembled together and taped at one end with narrow tape (3 M, St. Paul, Minn.). The hair was prepared as described in Examples 1-3 and placed into a flat-bottom block (Qiagen Science, Germantown, Md.; Cat. No. 19579).
The HCP.1(5-FAM) and HCP.6(5-FAM) hair-binding peptides, as described in Example 4, were mixed separately with undiluted hair conditioner (Dove® Extra Volume Conditioner; Unilever) using a high-shear mixer (Silverson, Model L4R7A; Silverson Machines, East Longmeadow, Mass.) for 6 min to give a final peptide concentration of 20 μM. The hair samples were blocked as described in Example 4 and then incubated in the peptide-conditioner mixtures for 30 min at 37° C. The hair samples were then washed and treated as described in Example 4. After the final wash step after the addition of the Anti-Mouse IgG-HRP conjugate, the hair bundles were transferred to new tubes and the TMB substrate was added. The hair bundles were incubated for 10 min at room temperature, and then a 100 μL sample from each tube was taken and added to a well in a microtiter plate. Then, 100 μL of Stop solution (2 M sulfuric acid solution) was added to each well and the absorbance of each sample was measured at a wavelength of 450 nm.
The binding of the HCP.1(5-FAM) and HCP.6(5-FAM) hair-binding peptides to hair from buffer was determined using the same procedure. In addition, controls were run using the same procedure, without any hair-binding peptide present, in both hair conditioner and buffer.

The nature of data set [4]: Shampoo resistance of hair binding (ELISA after 30% shampoo wash). Set-up: species or system human. The following applies: wash with 30% shampoo (Pantene Pro-V, Sheer Volume). The method, then: Experiments were also done to determine if the hair conditioner-resistant hair-binding peptides were also shampoo resistant. For these experiments, the hair, after contacting with the hair-binding peptide (HCP.1 or HCP.6), was washed with a solution containing 30% shampoo (Pantene Pro-V, Sheer Volume, Proctor & Gamble, Cincinnati, Ohio) and the binding activity was determined using the ELISA method described above and compared to that obtained with buffer washes.

Data set [5] is described as follows: Stability of hair-binding activity in a hair conditioner matrix (ELISA over time). Set-up: species or system human. The following applies: 21 days in hair conditioner matrix, room temperature; FIGS. 1 and 2. How it is done: Separate mixtures of the hair-binding peptides HCP.1 and HCP.6 in hair conditioner were prepared as described in Example 5. For purposes of comparison, solutions of the hair-binding peptides in buffer were used. All the solutions were stored at room temperature and the binding activity of the peptides was determined using the ELISA procedure described in Example 5 using samples taken at different periods of time.

Where no end group is shown, it is not given here. 5‑FAM = 5-carboxyfluorescein-aminohexyl amidite fluorescent tag

As for “HCP.1(5-FAM): HCP.1 with an added C-terminal lysine derivatized with fluorescent tag 5-carboxyfluorescein-aminohexyl amidite (THSTHNHGSPRHTNADAGNPK(5‑FAM))”, the “Skin A450 ± SEM” value in data set [1] stood at 0.090 ± 0.136. Also, the “Hair A450 ± SEM” value in data set [2] came to 0.392 ± 0.065. Also, in data set [3], the “Buffer A450 ± SEM” value is reported as 1.593 ± 0.060 and the “100% Conditioner A450 ± SEM” value was 1.581 ± 0.046.
As for “Skin 1(5-FAM): skin-binding control peptide Skin 1 with added C-terminal lysine derivatized with 5-FAM (TPFHSPENAPGSK(5‑FAM)) [reference compound]”, the “Skin A450 ± SEM” value in data set [1] was found to be 0.328 ± 0.146. Moreover, the “Hair A450 ± SEM” value in data set [2] is −0.001 ± 0.041.
In the case of “THSTHNHGSPRHTNADAGNP (Hair conditioner-resistant hair-binding peptide) [HCP.1]”, in data set [1], the “binding to skin (in words)” value is “not to skin”. For the same substance, the “binding to hair (in words)” value in data set [2] is listed as “bind to hair”. The “binding activity after shampoo wash compared to buffer washes” value in data set [4] is “almost total loss of binding activity”. Also, the “hair-binding activity after storage in the hair conditioner matrix” value in data set [5] is “no significant decrease”. Besides, in data set [3], the “difference in hair-binding activity from a hair conditioner matrix compared to buffer” value is recorded as “no significant difference”.
For the substance “STLHKYKSQDPTPHH (Hair conditioner-resistant hair-binding peptide) [HCP.6]”, the “binding to skin (in words)” value in data set [1] is “not to skin”. In addition, in data set [2], the “binding to hair (in words)” value is reported as “bind to hair”. In addition, the “binding activity after shampoo wash compared to buffer washes” value in data set [4] is recorded as “almost total loss of binding activity”. Moreover, the “hair-binding activity after storage in the hair conditioner matrix” value in data set [5] is given as “no significant decrease”. Besides, the “difference in hair-binding activity from a hair conditioner matrix compared to buffer” value in data set [3] was “no significant difference”.
Turning to “HCP.6(5-FAM): HCP.6 with an added C-terminal lysine derivatized with fluorescent tag 5-carboxyfluorescein-aminohexyl amidite (STLHKYKSQDPTPHHK(5‑FAM))”, the “Skin A450 ± SEM” value in data set [1] was −0.009 ± 0.023. Further, the “Hair A450 ± SEM” value in data set [2] stood at 0.581 ± 0.053. In data set [3], the “Buffer A450 ± SEM” value came out at 1.420 ± 0.062 and the “100% Conditioner A450 ± SEM” value was 1.217 ± 0.075.
Take “Skin 1: control peptide, an unrelated skin-binding peptide (Huang et al., US 2005/0050656) (TPFHSPENAPGS; Skin-binding peptide) [reference compound]”: the “binding to skin (in words)” value in data set [1] is reported as “high skin-binding activity”. Further, in data set [2], the “binding to hair (in words)” value is listed as “low hair-binding activity”.
